{
  "source": "patent US11725015B2",
  "about": "“Macrocyclic compound and uses thereof” (President and Fellows of Harvard College, priority 2017, dated 2023)",
  "key": {"[1]": {"tested_on": "FaDu subcutaneous xenograft", "assay": "Antitumor effects in FaDu subcutaneous xenograft model in mice as monotherapy", "assay_type": "in vivo", "protocol": "(§1) A human squamous cell carcinoma of the head and neck (SCCHN) cell line FaDu, which had been cultured in an RPMI-1640 medium containing 10% FBS, and penicillin and streptomycin, was adjusted to a concentration of 4.8×10^7 cells/mL with Hanks' Balanced Salt Solution to prepare a cell suspension. The cell suspension was inoculated in a volume of 100 μL into a subcutaneous part of a right flank of nude mice, 7 weeks of ages (CAnN.Cg-Foxn1nu/CrlCrlj, female, Charles River Laboratories Japan Inc.).\n(§2) On the basis of the volumes of tumors obtained on the first day of administration, the mice were grouped such that averages of the tumor volumes were substantially equal among the groups. Each test compound was dissolved in DMSO and a solution was stored at the freezer before use. Immediately before the administration, the stock solution was diluted in saline with 100 μM of hydroxypropyl-β-cyclodextrin. Each evaluation sample was intravenously administered at a maximum tolerable dose (MTD). Incidentally, the experiment was conducted on groups each consisting of 4 mice."}, "[2]": {"tested_on": "FaDu subcutaneous xenograft", "assay": "Antitumor effects in FaDu subcutaneous xenograft model in combination with cetuximab in mice", "assay_type": "in vivo", "protocol": "as §1, with “5×10^7” for “4.8×10^7”, “(CAnN.Cg-Foxnlnu/CrlCrlj,” for “(CAnN.Cg-Foxn1nu/CrlCrlj,”\nas §2, with “Each evaluation sample was intravenously administered at a maximum tolerable dose (MTD).” left out"}, "[3]": {"tested_on": "CD31-positive vessel in the FaDu subcutaneous model", "assay": "Effect on CD31-positive vessel in the FaDu subcutaneous model in mice (Test Example 9)", "assay_type": "in vivo", "settings": "five days after administration", "protocol": "A human squamous cell carcinoma of the head and neck (SCCHN) cell line FaDu, which had been cultured in an RPMI-1640 medium containing 10% FBS, and penicillin and streptomycin, was adjusted to a concentration of 5×10^7 cells/mL with PBS to prepare a cell suspension. The cell suspension was inoculated in a volume of 100 μL into a subcutaneous part of a right flank of nude mice, 7 weeks of ages (CAnN.Cg-Foxnlnu/CrlCrlj, female, Charles River Laboratories Japan, Inc.). Ten days after cell inoculation, a test compound in saline with 100 μM of hydroxypropyl-β-cyclodextrin was intravenously administered at doses from ½ MTD to MTD. The experiment was conducted on groups each consisting of 3 mice. Five days after administration, tumor samples were collected and fixed with IHC Zinc Fixative (BD Pharmingen) at 4° C. for 24 hr. Paraffin-embedded tissues were sectioned (3 μm), mounted on positively charged slides, and air-dried. Immunohistochemical staining of CD31 was conducted using Ventana autostainer model Discover XT (Roche Diagnostics) according to the manufacture's protocol. Sections were deparaffinized, conditioned and the antigens were retrieved with CC1 (Ventana Medical Systems). Slides were blocked with Blocker A and Blocker B (Endogenous biotin blocking kit, Roche Diagnostics). Rat anti-mouse IgG CD31 antibody (Dianova GmbH) was applied at 2 μg/mL. […]\nImmunostained slides were scanned using Vectra 2 Automated Slide Imaging System (Perkin Elmer Inc.). The number of blood vessels in the whole tumor was quantified by counting the CD31-positive objects using inForm 2 software (PerkinElmer Inc.) Area of the tumor region was measured by assessing the hematoxylin-staining area using inform 2 software (PerkinElmer Inc.) The number of blood vessels was normalized by the area of the tumor region. An increase rate of the blood vessel number of the test compound-dosing group was calculated with the below formula, and shown in Table 9. […]"}, "[4]": {"tested_on": "human small bowel cancer cell line HuTu 80", "assay": "HuTu 80 growth inhibition assay", "assay_type": "cell-based", "settings": "3 days incubation, CellTiter-Glo", "protocol": "In this assay, the growth inhibitory activities of test compounds in the human small bowel cancer cell line HuTu 80, which was isolated from duodenal tissue were measured. HuTu 80 cells were maintained in EMEM medium containing 10% FBS, penicillin and streptomycin in a 5% CO2 incubator (37° C.). To each well of a 96-well plate (Becton, Dickinson and Company, 353219), 100 μL of a HuTu80 cell suspension adjusted to a concentration of 3×10^4 cells/mL with the culture medium was added, and the cells were incubated overnight in a 5% CO2 incubator (37° C.). On the next day, 100 μL of Compound (1) or Halichondrin B in three-fold dilution series suspended in the culture medium was added to each well, and the resultant was incubated for 3 days in a 5% CO2 incubator (37° C.). Then, cell viability was determined by CellTiter-Glo® Luminescent Cell Viability Assay (Promega) with EnVision 2103 Multilabel Reader (Perkin-Elmer, Wellesley, Mass.). Value of the wells containing cells without adding the test compounds was defined as 100% and the value of the wells containing no cells was defined as 0%. The concentrations of the test compounds necessary for inhibiting the cell growth by 50% (i.e., an IC50 value) were calculated and are shown in Table 15."}},
  "data": [
    {"smiles": "C=C1C[C@@H]2CC[C@@]34C[C@H]5O[C@H]6[C@@H](O3)[C@H]3O[C@H](CC[C@@H]3O[C@H]6C5O4)CC(=O)O[C@@H]3[C@@H](C)[C@@H]4O[C@@H]5C[C@]6(C[C@@H]7O[C@]8(C[C@H](C)[C@@H]9O[C@H](CN)[C@H](O)C[C@@H]9O8)C[C@H](C)[C@@H]7O6)O[C@@H]5C[C@@H]4O[C@H]3C[C@H]3O[C@@H](CC[C@@H]1O2)C[C@@H](C)C3=C", "note": "[Compound (1)]", "values": [
      {"measurement": "Tumor Regression (%)", "setting": "[1]; 0.2 mg/kg intravenously (MTD)", "result": 43, "unit": "%"},
      {"measurement": "Tumor Regression on day 35 (%)", "setting": "[2]; 0.05 mg/kg intravenously + cetuximab 20 mg/kg", "result": 38, "unit": "%"},
      {"measurement": "Tumor Regression on day 35 (%)", "setting": "[2]; 0.1 mg/kg intravenously + cetuximab 20 mg/kg", "result": 60, "unit": "%"},
      {"measurement": "Increase rate of blood vessel number (%)", "setting": "[3]; 0.10 mg/kg intravenously", "result": 69, "unit": "%"},
      {"measurement": "IC50", "setting": "[4]", "result": 0.019, "unit": "nM"}
    ]},
    {"smiles": "C=C1C[C@@H]2CC[C@@]34C[C@H]5O[C@H]6[C@@H](O3)[C@H]3O[C@H](CC[C@@H]3O[C@H]6[C@H]5O4)CC(=O)O[C@@H]3[C@@H](C)[C@@H]4O[C@@H]5C[C@]6(C[C@@H]7O[C@]8(C[C@H](C)[C@@H]9O[C@H]([C@@H](O)C[C@@H](O)CO)C[C@@H]9O8)C[C@H](C)[C@@H]7O6)O[C@@H]5C[C@@H]4O[C@H]3C[C@H]3O[C@@H](CC[C@@H]1O2)C[C@@H](C)C3=C", "note": "[Halichondrin B, reference compound]", "values": [
      {"measurement": "Tumor Regression (%)", "setting": "[1]; 0.05 mg/kg intravenously (MTD)", "result": 0, "unit": "%"},
      {"measurement": "Tumor Regression on day 35 (%)", "setting": "[2]; 0.0125 mg/kg intravenously + cetuximab 20 mg/kg", "result": "−38", "unit": "%"},
      {"measurement": "Tumor Regression on day 35 (%)", "setting": "[2]; 0.025 mg/kg intravenously + cetuximab 20 mg/kg", "result": "−2", "unit": "%"},
      {"measurement": "Increase rate of blood vessel number (%)", "setting": "[3]; 0.025 mg/kg intravenously", "result": 31, "unit": "%"},
      {"measurement": "Increase rate of blood vessel number (%)", "setting": "[3]; 0.05 mg/kg intravenously", "result": 39, "unit": "%"},
      {"measurement": "IC50", "setting": "[4]", "result": 0.031, "unit": "nM"}
    ]}
  ]
}
